1 compound from patent US9737502B2, “Calebin A for hepatic steatosis” (SAMI LABS LIMITED, priority 2011, dated 2017) can be followed below.

The test system of one assay is 3T3-L1 cells. Kind of assay: Oil Red-O staining of adipogenic cultures (adipogenesis inhibition). The format is cell-based, mouse. Here is the method: Terminal differentiation of adipocytes is accompanied by the accumulation of great amounts of lipids in large cytoplasmic vesicles. A common assay to measure adipocyte differentiation in cell culture is with the dye Oil Red-O (ORO). ORO is a lipid-soluble bright red dye which is a reliable indicator of adipocyte differentiation (adipogenesis).
3T3-L1 cells approximately 60×10^4 cells are seeded for 48-72 hrs to get 70-80% confluence. After 48 hrs 200 μl of AIM (Adipogenesis induction medium) freshly prepared is added. 72 hrs later 200 μl APM (Adipogenesis progression medium) with the test compounds in different concentrations is added to the wells. The cells are incubated for 48 hrs in a humidified atmosphere (37° C.) of 5% CO2 and 95% air. The supernatant is collected and stored for the estimation of leptin, adiponectin, IL-6 and TNF-α by ELISA. Cells are fixed by adding 100 μl of 10% formalin and ORO staining is done. OD is read at 492 nm in microplate reader. The results are expressed as IC50 values using Graphpad prism software.
The percentage of inhibition of adipogenesis is calculated as follows, % inhibition=C−T/[…] Where C-absorbance of Oil red 0 in differentiating/undifferentiated cells T-absorbance of Oil Red-O in sample treated differentiating/undifferentiated cells. The estimation of leptin, adiponectin, IL-6 and TNF-α is done according to user's manual from R&D Systems.

Assay [1] deals with epididymal fat (adipocytes). Kind of assay: Adipocyte size in epididymal fat of HFD mice (H&E histology). The class given is in vivo, C57BL/6J mice. As to conditions: Calebin A 0.25% and 1%, 12 weeks. As for the experimental part:
Fully differentiated adipocytes (8 days) previously untreated with Calebin A as described in procedural steps outlined in Example IV were treated with Calebin A at concentrations of 5-30 μM. Lipolysis was linked to the breakdown of lipids into glycerol that was released into the cell culture medium and detected thereof. […] Thus, in another most preferred embodiment, the present invention relates to a method of inducing lipolysis in mammalian adipocytes, said method comprising the step of treating mammalian adipocytes with varying concentrations of Calebin A to bring about the effect of dose dependant lipolysis in said adipocytes. […] Epididymal fat pads were dissected and fixed in 10% buffered formalin for at least 24 hours, then dehydrated with a sequence of ethanol solutions and processed for embedding in paraffin. Sections of 5-6 μm in thickness were cut, de-paraffinized, rehydrated, stained with haematoxylin & eosin (H&E) and subjected to photomicroscopic assessment. Adipocyte size was determined using a Nikon light microscope (Japan) equipped with an ocular micrometer at 200× magnification in 10 random fields per section. […]

With `COc1cc(/C=C/C(=O)COC(=O)/C=C/c2ccc(O)c(OC)c2)ccc1O` [Calebin A], the percentage adipogenesis inhibition came to 32.43% in the assay on 3T3-L1 cells (0.5 μg/ml), 38.59% with 3T3-L1 cells (1.0 μg/ml) and 35.8% with 3T3-L1 cells (2.0 μg/ml). For the same compound, the size of adipocytes result in assay [1] was “remarkable reduction”.
